# Test results taken from a melting point compilation (Tetko et al.; mined from patent text by program, amines drawn as free bases though some values may be those of a salt).
row,Structure (SMILES),melting point
1,O=[N+]([O-])c1c(Cl)cccc1-c1nn(CO)cc1Cl,146 °C
2,CCCCCCNC(=O)NOCC(O)CN1CCCCC1 (stereo not given),50 to 52 °C
3,Clc1cc(-c2ccc3nnn(Cc4ccc5ncccc5c4)c3n2)ccn1,197 to 199 °C
4,COCN1C(C)=C(C(=O)OCOC(=O)C(C)(C)C)C(c2cccc([N+](=O)[O-])c2)C(C(=O)OCOC(=O)C(C)(C)C)=C1C,73 to 74 °C
5,COc1c(C#N)c2cc(Cl)c(Cl)cc2n1C1OC(CO)C(O)C1O (stereo not given),245 to 246 °C
6,CC1CCN(c2c(C#N)c3c(c4c2CCc2ccccc2-4)-c2ccccc2C3)CC1,152 to 154 °C
7,CS(=O)(=O)COC(=O)c1oc(-c2ccccc2)cc(=O)c1Br,192 °C
8,COc1ccccc1-n1c(=O)[nH]c2c(C(N)=O)nc(-c3ccc4nc(C)[nH]c4c3)nc21,270 °C
9,CCOC(=O)C(Cc1ccc(C(F)(F)F)cc1)C(=O)c1ccoc1 (stereo not given),55 to 56 °C
10,Fc1cc2c(cc1F)CC(n1cc[nH]c1=S)C2,255 to 257 °C
11,Cc1c(OCC(F)(F)F)ccnc1CS(=O)c1nc2cc(N3CCCCC3)c(F)cc2[nH]1 (stereo not given),99 to 100 °C
12,CC(c1cccc(F)c1)n1ncc(-c2ccc(S(N)(=O)=O)cc2)c(-c2ccc(F)cc2)c1=O (stereo not given),192 to 194 °C
13,CC(=O)c1ccc(CCCOc2c(C)cc(N3CN=C(C(F)F)O3)cc2C)nn1,95 to 96 °C
14,CCc1ccc(C(=O)C(=O)O)[nH]1,126 to 128 °C
15,NP(N)(=O)NC(=O)c1cccs1,272 to 280 °C
16,CCOC(=O)COc1ccc2cc(Br)ccc2c1Cl,92 to 94 °C
17,COc1ccc(C=O)nc1I,118 to 121 °C
18,Nc1c(F)c(N2CCCC(n3ccnn3)C2)c(F)c2c1c(=O)c(C(=O)O)cn2C1CC1 (stereo not given),252 to 254 °C
19,CC(C)=CC(C#N)NC(=O)c1cn(C)nc1C (stereo not given),110 to 112 °C
20,N#Cc1cc(CBr)ccc1Cl,55 to 58 °C
21,CCc1nc2cc(OC)c(OC)cc2c(-c2ccc(OC)c(OC)c2)c1CO,192 to 193 °C
22,NS(=O)(=O)c1ccc2c(c1)CCO2,163 to 164 °C
23,CC1(C)CC(=O)c2cc(OCC(F)(F)F)c(OCC(F)(F)F)cc2O1,92 to 93 °C

row,Structure (SMILES),melting point
1,CCC(=O)NCCCC(=O)O,85 to 90 °C
2,Cc1oc(-c2ccccc2)nc1C(=O)c1cc2cc(Br)ccc2o1,212 to 213 °C
3,CCn1ncc(C(=O)c2cc(C)c3c(c2C)C(=O)C(C)(C)CS3(=O)=O)c1O,160 to 163 °C
4,C=CCOC(=O)C1=C2CCSC[C@@H]2[C@@H]2/C(=C\C)C(=O)N12,195 to 225 °C
5,Nc1nnc(CCC2CCCCC2)s1,253 to 255 °C
6,CCOC(=O)c1cc(OC)c2c(c1)C(=O)c1c(F)ccc(OC)c1C2=O,201 to 203 °C
7,COC(=O)c1ccccc1OS(=O)(=O)N(C)C,75.5 to 76.5 °C
8,COC(=O)Cc1c(C)c2ccc(O)cc2oc1=O,194 to 196 °C
9,CC(O)(c1ccccc1)c1cc(C2CCCCC2)ccc1O (stereo not given),119 °C
10,COC(=O)C(NC(=O)C1CCCS1)C(C)C (stereo not given),55 to 65 °C
11,Nc1ncnc2c1c(-c1cn[nH]c1)nn2Cc1oc2ccccc2c(=O)c1-c1ccccc1,235 to 237 °C
12,O=C1c2ccccc2C2(c3ccc(Cl)cc3)NCCN12 (stereo not given),166 to 168 °C
13,CC(C)CCCC(C)C1CCC2C3CC(Br)=C4CC(O)CCC4(C)C3CCC12C (stereo not given),155 °C
14,C=C1CC(c2ccc(Br)s2)N(C)C1=O (stereo not given),177 to 180 °C
15,CCCC1CCC(C2CCc3c4c(c(F)c(F)c3O2)OCCC4)CC1 (stereo not given),152 °C
16,O=C(O)c1ccc(NCC(O)C(O)C(O)C(O)CO)cc1 (stereo not given),111 to 112 °C
17,CCOc1nc(SC)nc(N2CCS(=O)CC2)c1[N+](=O)[O-],102 to 104 °C
18,CCCCCN1C(=O)C(CCc2nnn[nH]2)(NC(=O)c2ccc(Cl)c(Cl)c2)c2ccccc21 (stereo not given),142 °C
19,CC1(C)CC(S(=O)(=O)C(F)c2c(F)cccc2F)=NO1 (stereo not given),88 °C
20,CC(O)=C(C#N)C(=O)c1ccc(F)c(F)c1,51 to 54 °C
21,O=C(O)c1ccccc1C(=O)N1CC2CCC(C1)O2,149 to 150 °C
22,CCOC(=O)c1c(Cl)nc2ccccc2c1-c1ccc(F)cc1,113 to 114 °C
23,C=CCn1nc(-c2ccc(S(C)(=O)=O)cc2)c(-c2ccc(F)cc2)c1C(F)(F)F,116 to 119 °C

row,Structure (SMILES),melting point
1,CCC(C(=O)Nc1c(C)cccc1C)N(C)C (stereo not given),155 to 157 °C
2,CCCCCc1ccc(-c2ccc(-c3cc(F)c(C(F)(F)Oc4cc(F)c(C(F)(F)F)c(F)c4)c(F)c3)c(F)c2)cc1,96 °C
3,Cc1ccccc1N1C(=O)CN2C(=O)CCC21 (stereo not given),138 to 139 °C
4,CN(CCO)c1cccc2c1C(=O)c1c(cccc1N(C)CCO)C2=O,168 to 178 °C
5,CCn1ncc2c(Cl)c3c(nc21)C(=O)c1ccccc1CC3,156 to 159 °C
6,CCOC(=O)C1=C(C)NN=C(C(=O)OC)C1c1ccccc1C#N (stereo not given),199 °C
7,N#Cc1ccc2sc3c(c2c1)CC(C=O)CC3 (stereo not given),172 to 173 °C
8,COc1ccc(CN(CCN(C)CCCCCCNC(=C[N+](=O)[O-])NCCCOc2cccc(CN3CCCCC3)c2)c2ccccn2)cc1,73 °C
9,Cn1c2cc(Cl)ccc2c2c(Cl)nc(-c3ccncc3)nc21,272 to 274 °C
10,CC1(C)C(=O)Nc2cc(-c3nc4ccc(Cl)cc4[nH]3)ccc21,287 to 289 °C
11,CC(C)[C@@H](NC(=O)OCc1ccccc1)C(=O)C=[N+]=[N-],68 to 69 °C
12,Cc1nnc2n1-c1sc(CCS(=O)(=O)N3CCN(C)CC3)cc1C(c1ccccc1Cl)=NC2,148 to 150 °C
13,CCCOc1c(-c2ccccc2)nn(C)c1-c1ccccc1,56 to 57 °C
14,CCCCn1c2ccccc2c2cc(C(=O)O)ncc21,182 to 184 °C
15,Cc1cscc1NC(=S)Nc1cc(C(F)(F)F)cc(Cl)c1N,> 310 °C
16,CC(=O)NC12CC3(C)CC(C)(CC(O)(C3)C1)C2,194 to 195 °C
17,CN1CC(CN2C(=O)c3ccccc3C2=O)CC2c3cc(C(C)(C)C)cc4[nH]cc(c34)CC21 (stereo not given),132 to 137 °C
18,O=C(O)C1=CCC2CC(=O)C12 (stereo not given),52 to 56 °C
19,O=c1ccn(C2OC(CO)C(O)C2Cl)c(=O)[nH]1 (stereo not given),206 to 207 °C
20,COc1ccc2[nH]cc(/C=C/C(=O)c3ccncc3)c2c1,236 to 239 °C
21,CC(C)(C)NCC(O)c1ccc(O)c(NC=O)c1 (stereo not given),195 to 196 °C
22,CC(C)CCC(=O)N[C@@H]1N=C(c2ccccc2)c2ccccc2N(C)C1=O,123 to 125 °C
23,COc1ccc(C(C)CNC(=O)C(N)=O)cc1OC1CCCC1 (stereo not given),175 to 176 °C

# Other lines, results leading:
row,melting point,Structure (SMILES)
1,147 to 148 °C,O=C(Nc1ccc(F)cc1)c1ccccc1-c1cccc(F)c1
2,102 to 103 °C,O=C(c1ccc(Cl)cc1)c1cc(C2(Nc3ccccc3)OCCO2)ccn1
3,110 to 111 °C,COc1cccc(C2CCCN2CCN2C(=O)c3ccccc3C2=O)c1 (stereo not given)
4,194 to 196 °C,COc1ccc(N2CCOCC2)c2sc(-c3nc4c([nH]3)CCN(C(=O)c3ccccc3C)CC4)nc12
5,97 to 99 °C,CC(C)(O)c1ccc(CC(=O)Nc2cccnc2Oc2cccc(C#N)c2)cc1
6,68 to 72 °C,N#Cc1ncn(C2OC(COC(=O)c3ccccc3)C(OC(=O)c3ccccc3)C2OC(=O)c2ccccc2)c1C#N (stereo not given)
7,202 °C,CN(CCNc1ccnc2c(NC(=O)c3c(Cl)cccc3Cl)cccc12)C(=O)n1ccnc1
8,131 to 134 °C,NC(Cc1ccccc1-c1ccc(C(=O)N2Cc3ccc(C(=O)NCc4cccnc4)n3Cc3ccccc32)cc1)=NO
9,116 to 118 °C,C=C(C)[C@H](C(=O)OC(c1ccccc1)c1ccccc1)N1C(=O)[C@@H]2N=C(c3ccccc3)O[C@@H]21
10,121 to 122 °C,C[C@@](O)(C(=O)Nc1ccc(S(=O)(=O)c2ccccc2)cc1F)C(F)(F)F
11,275 to 280 °C,Cc1nn(-c2ccccc2)nc1C(=O)N1CCC2(CC1)CSC1=C(O2)c2ccccc2C(=O)C1=O
12,280 to 281 °C,CC(=O)Nc1nc(-c2ccc(C(C)(C)C)cc2)c(-c2ccncc2)s1
13,120 °C,Cc1cc(-n2ccnc2)c2cccc(OCc3c(Cl)ccc(S(=O)(=O)N4CCC[C@H]4C(=O)NCCc4ccncc4)c3Cl)c2n1
14,192 to 194 °C,NC(=S)N1c2ccccc2C=Cc2ccccc21
15,80 to 85 °C,CC(C)C[C@H](NC(=O)OCc1ccccc1Cl)C(=O)N[C@@H](Cc1ccccc1)C(=O)CSCc1ccco1
16,164 to 165 °C,O=C(O)Cc1cccc(C(=O)c2ccc(Cl)cc2)c1[N+](=O)[O-]

row,melting point,Structure (SMILES)
1,173 to 175 °C,CC(C)n1nc(-c2nc(Oc3ccc(F)cc3)c(N)nc2-c2ccccc2)ccc1=O
2,199 to 204 °C,O=C(O)CCc1cc2cc(F)c(Cl)cc2n1S(=O)(=O)c1ccccc1
3,184 to 186 °C,COC(=O)c1ccc(Sc2ccc(O)cc2)cc1
4,105 to 107 °C,COc1ccc(C(=O)C(C(=O)Nc2cc(N)ccc2Cl)N2C(=O)c3ccccc3C2=O)cc1 (stereo not given)
5,120 to 121 °C,COc1ccc(Br)cc1C(=O)NCCc1ccc(CCC(=O)O)cc1
6,120 to 123 °C,COc1cc(Nc2c(C#N)cnc3cc(-c4ccc(CN5CCC(O)CC5)s4)ccc23)c(Cl)cc1Cl
7,227 to 230 °C,Cc1cc(Cc2ccc(NC(=O)N(C)C)cn2)n(C)c1C(=O)c1ccc(Cl)cc1
8,160 °C,Cc1nn(C)c(=O)n1-c1ccc(N)cc1
9,256 to 257 °C,CN1CCC(Oc2[nH]nc(-c3ccc(Cl)cc3)c2-c2ccncc2)CC1
10,213 to 215 °C,Cn1c(COc2ccc(CC3SC(=O)NC3=O)cc2)nc2ccc(Oc3ccc(NC(=O)c4cccnc4)cc3)cc21 (stereo not given)
11,122 to 124 °C,COc1ccc(CNc2ncccc2C(=O)Nc2cccnc2Cl)cc1
12,128 to 129 °C,CCCCc1oc2ccccc2c1-c1ccc(-c2ccc(O)cc2)cc1
13,245 °C,O=C(Nc1ccc(N2CCOCC2=O)cc1)[C@H]1C=CCN1C(=O)Nc1ccc(Cl)cc1
14,98 to 99 °C,Cc1nccn1-c1cccc(Nc2ccc(-c3ccoc3)cc2N)c1
15,150 to 154 °C,O=S(=O)(c1ccc(O)cc1)c1ccc(F)cc1
